Data reported in article PMC6380468, “Investigations on small molecule inhibitors targeting the histone H3K4 tri-methyllysine binding PHD-finger of JmjC histone demethylases” (Bioorganic & Medicinal Chemistry, 2018).

Legend:
[1] = target: T1, KDM7B (PHD-JmjC) (Homo sapiens, UniProt Q9UPP1); experiment: MALDI-TOF MS H3K9me2 demethylation assay, KDM7B(PHD-JmjC); type: biochemical; settings: at 100 µM; MALDI-TOF MS; substrate H3(1–5)K4me3K9me2; read-out: KDM7B (PHD-JmjC) (Catalytic), inhibition of H3K9me2 demethylation
T1 construct: A dual-domain construct of KDM7A/B(PHD-JmjC), consisting of a JmjC domain in addition to the PHD-finger; His; made in house
Method: H3(1–15)K9me2 and H3(1–5)K4me3K9me2 were used as substrates for KDM7A(PHD-JmjC) and KDM7B(PHD-JmjC), respectively. […] For KDM7B(PHD-JmjC), inhibition was most pronounced for 1a (95%) and 2a (89%) whilst others inhibited more weakly (Table 4).
For KDM7(PHD-JmjC) assays, 2.5 µM enzyme was used, with 5 µM H3(1-15)K9me2 peptide substrate for KDM7A or H3(1-15)K4me3K9me2 for KDM7B. Final concentrations were: 1mM ascorbate, 50 µM (NH4)2Fe(II)(SO4)2 and 200 µM 2OG. The mixture was quenched using formic acid after 10 minutes (KDM7A) or 5 minutes (KDM7B).

[2] = target: T2, KDM7B(PHD) (Homo sapiens, UniProt Q9UPP1); experiment: AlphaScreen displacement of H3K4me3-Bn from His-KDM7B(PHD); type: binding; settings: AlphaScreen; 12.5 nM protein and 12.5 nM peptide; n ≥ 3; read-out: IC50 for displacement of H3K4me3-Bn from His-KDM7B(PHD)
T2 construct: made in house
T2 sequence (Q9UPP1 41-92 limits assumed): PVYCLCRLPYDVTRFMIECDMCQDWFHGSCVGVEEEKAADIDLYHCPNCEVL
Method: (§1) For peptide displacement assays, 5 µL of the inhibitor dilution series (at a concentration of 4% DMSO in AlphaScreen assay buffer) was pre-incubated with 5 µL of the protein at RT for 15 minutes. Peptide solution (5 µL) was added and incubated for 30 minutes at RT, followed by the addition of 5 µL of a mixture of AlphaScreen Streptavidin donor beads and Nickel Chelate acceptor beads in AlphaScreen assay buffer (20 µg/mL final). The contents were incubated for 60-120 minutes at RT in the dark, followed by measurement of luminescence on a BMG Labtech Pherastar plate reader (Software Ver. 5.30 R3, Firmware Ver. 1.21). The data was plotted in Prism Ver 7.01 (GraphPad Software, Inc.) and fitted to a Log(inhibitor) v/s response – variable slope model in order to obtain IC50 values.

[3] = target: T3, KDM5A_c2 (ΔARID/PHD1) (Homo sapiens, UniProt P29375); experiment: MALDI-TOF MS H3K4me3 demethylation assay, KDM5A_c2; type: biochemical; settings: average ± StdDev of n = 2, read-out: IC50, inhibition of H3K4me3 demethylation activity, KDM5A_c2
T3 sequence (P29375 with tags, fused parts or gaps): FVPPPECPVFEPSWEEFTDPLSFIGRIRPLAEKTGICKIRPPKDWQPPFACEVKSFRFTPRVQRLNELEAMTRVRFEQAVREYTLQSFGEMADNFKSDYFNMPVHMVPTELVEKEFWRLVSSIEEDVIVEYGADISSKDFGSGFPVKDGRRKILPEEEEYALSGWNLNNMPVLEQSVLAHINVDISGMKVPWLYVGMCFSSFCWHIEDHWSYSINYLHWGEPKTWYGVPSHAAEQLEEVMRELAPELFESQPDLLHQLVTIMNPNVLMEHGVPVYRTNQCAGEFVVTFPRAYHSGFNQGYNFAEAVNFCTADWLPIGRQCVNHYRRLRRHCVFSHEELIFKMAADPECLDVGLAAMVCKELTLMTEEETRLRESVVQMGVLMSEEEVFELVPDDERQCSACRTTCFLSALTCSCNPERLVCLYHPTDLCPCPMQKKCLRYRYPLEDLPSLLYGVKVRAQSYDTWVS
Method: Two catalytically active constructs of KDM5A were employed, KDM5A_c1 (M1-L801) and KDM5A_c2 (ΔARID/PHD1, P13-S744 with L88-G353 (ARID/PHD1) replaced with a GGGG linker) and both KDM5A_c1 and KDM5A_c2 constructs lack the PHD2 and PHD3. […] A MALDI-TOF MS assay was used to measure the activity of H3K4me3 demethylation in the presence of inhibitors (Table 2, Fig. 3C and D).
The KDM5A mixture (5 µL, KDM5A-c1: 1.0 µM or KDM5A-c2: 0.5 µM) was pre-incubated with 100 nL inhibitors (in DMSO) for 10 min. […] The mixture was quenched using formic acid (5 µL, 1 v/v% in MQ) after 4 minutes (KDM5A-c1) or 3 minutes (KDM5A-c2). The stopped reaction (1 µL) was mixed with […] (CHCA) MALDI matrix (saturated solution in TFA (0.1%) in MilliQ water and trifluoroacetic acid (0.1%) acetonitrile (1:1)) at 1:1 ratio (2 µL), air dried and analysed using Bruker microflex MALDI-TOF controlled with FlexControl. The data were further processed using FlexAnalysis and excel.

[4] = target: T4, KDM7A(PHD) (Homo sapiens, UniProt Q6ZMT4); experiment: AlphaScreen displacement of H3K4me3-Bn from His-KDM7A(PHD); type: binding; settings: AlphaScreen; 6.25 nM KDM7A(PHD) and 25 nM peptide; n ≥ 3; read-out: IC50 for displacement of H3K4me3-Bn from His-KDM7A(PHD)
T4 construct: made in house
T4 sequence (Q6ZMT4 37-88 limits assumed): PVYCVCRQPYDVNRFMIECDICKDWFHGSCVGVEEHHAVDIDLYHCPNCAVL
Method: as §1

T1 sequence (Q9UPP1 37-483 limits assumed): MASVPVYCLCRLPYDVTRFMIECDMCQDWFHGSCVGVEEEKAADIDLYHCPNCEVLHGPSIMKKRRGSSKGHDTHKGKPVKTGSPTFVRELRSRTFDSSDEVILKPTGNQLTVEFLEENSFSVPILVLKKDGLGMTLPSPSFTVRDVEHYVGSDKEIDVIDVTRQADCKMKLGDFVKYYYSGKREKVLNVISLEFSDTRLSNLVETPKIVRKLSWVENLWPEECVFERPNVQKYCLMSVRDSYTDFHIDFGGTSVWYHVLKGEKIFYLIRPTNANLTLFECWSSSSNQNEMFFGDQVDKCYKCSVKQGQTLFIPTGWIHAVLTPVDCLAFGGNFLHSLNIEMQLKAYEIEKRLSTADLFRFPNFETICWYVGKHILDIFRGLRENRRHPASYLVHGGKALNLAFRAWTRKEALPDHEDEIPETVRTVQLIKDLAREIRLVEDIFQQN

| inhibition at 100 µM [1] [%] | IC50 [2] [µM] | IC50 [3] [µM] | IC50 [4] [µM] | SMILES |
| --- | --- | --- | --- | --- |
| 95 | 397 ± 77 | > 1000 | 333 ± 39 | CCCCc1oc2ccccc2c1C(=O)c1ccc(OCCCN(C)C)cc1 [Compound 1a, (2-Butylbenzofuran-3-yl)(4-(3-(dimethylamino)propoxy)phenyl)methanone] |
| 89 | 355 ± 39 | 37 ± 14 | 86 ± 9 | CCCCc1oc2ccccc2c1C(=O)c1ccc(OCCC[N+](C)(C)C)cc1.[I-] [Compound 2a, 3-(4-(2-Butylbenzofuran-3-carbonyl)phenoxy)-N,N,N-trimethylpropan-1-aminium iodide] |
